Measurements: ChEMBL document CHEMBL1201862, “PubChem BioAssay data set” (2004)
Calls of active or inactive are those of the source.

Columns and labels:
[1] = reduction of Shn3 3'UTR-driven luciferase in osteoblasts – cell-based, Clone20 osteoblasts, firefly luciferase, cherry-picked, dose response (AID 624132); assay type: functional;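 note: firefly luciferase luminescence from reporter carrying the Shn3 3'UTR in osteoblasts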
[2] = loss of viability in HepG2 cells – cell-based, CellTiter-Glo, cherry-picked, cytotoxicity control for Shn3 inhibitor project, dose response (AID 624134); assay type: functional
[3] = non-specific 3'UTR reporter inhibition in Clone20-Shn3RL – cell-based, Renilla luciferase, cherry-picked, counter-screen for Shn3 inhibitor project, dose response (AID 624133); assay type: functional
[4] = test system: BJ; test: BJ-TERT fibroblast viability loss – cell-based, RAS-independent, luminescence, dose response (AID 1933); assay type: functional; details: Homo sapiens
[5] = test system: BJ; test: cells; assay type: functional, cell-based; details: Homo sapiens
[6] = test system: BJ; test: BJ-TERT-LT-ST fibroblast viability loss – cell-based, RAS-independent, luminescence, dose response (AID 1935); assay type: functional; details: Homo sapiens;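 note: BJ fibroblasts immortalized with TERT plus LT and ST oncogenes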
[7] = DRD fibroblast viability loss – cell-based, non-viral oncogenic, luminescence, dose response (AID 1934); assay type: functional; details: Homo sapiens
[8] = target: FAD-linked sulfhydryl oxidase ALR (Homo sapiens, UniProt P55789); test: ALR-catalysed DTT oxidation blockers – biochemical, H2O2 detection, luminescence, cherry-pick, dose response (AID 493248)
Sequence of FAD-linked sulfhydryl oxidase ALR (P55789 whole entry): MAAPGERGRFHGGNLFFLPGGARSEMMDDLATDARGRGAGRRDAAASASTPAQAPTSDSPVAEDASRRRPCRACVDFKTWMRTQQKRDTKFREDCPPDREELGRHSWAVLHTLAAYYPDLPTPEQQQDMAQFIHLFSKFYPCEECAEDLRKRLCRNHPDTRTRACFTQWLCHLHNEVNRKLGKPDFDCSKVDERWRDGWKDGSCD

[9] = test system: INS1; test: INS-1E survival protection against cytokine death – cell-based, luminescence, retest, dose response (AID 449756); assay type: functional; details: Rattus norvegicus;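 note: cell death triggered by IL-1 beta plus TNF-alpha plus IFN-gamma mixture; protective hits raise ATP signal compared with cytokine alone wells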
[10] = luciferase reporter signal suppression in cells – H4 neuroglioma cells, luminescence, dose response (AID 1990); assay type: functional, cell-based
[11] = alpha-synuclein stem-loop luciferase translation blockers – H4 neuroglioma cells, luminescence, confirmation (AID 1988); assay type: functional, cell-based
[12] = Luminescence Cell-Based Dose Response HTS to Identify Inhibitors of 5'UTR Stem-Loop Driven Prion Protein mRNA Translation in H4 Neuroglioblastoma Cells. [Related pubchem assays: 1827 (Project Summary), 1813 (Primary HTS)]; assay type: functional
[13] = intracellular Trypanosoma cruzi inhibitors in host cells – cell-based, plate reader, cherry-pick samples, set 3, dose response (AID 651818); assay type: functional;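 note: compounds incubated with infected cells for about four days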

Which AC50 [1] does the source give for `O=C(Nc1ccc(F)c(F)c1)c1ccc(F)c(S(=O)(=O)N2CCC3(CC2)OCCO3)c1` here?
Its AC50 is 12.2 µM (active).

What about the AC50 [2] of the same compound?
Its AC50 is 42.3 µM (active).

And the AC50 [3]?
Its AC50 is 11.2 µM (active).

With `O=Cc1cccnc1SCc1ccccc1` as the compound, how does the EC50 [4] read?
Its EC50 is 10.5 µM (active).

And the EC50 [5]?
Its EC50 is 16.3 µM (active).

What about the EC50 [6] of the same compound?
The EC50 was 11.1 µM (inconclusive).

And the EC50 [7]?
Its EC50 is 21.3 µM (active).

Which AC50 [8] does the source give for `COc1cccc(CNn2cnnc2)c1O` here?
The AC50 was 2.23 µM (active).

For `Cc1ccc(C)c(NC(=O)CN(C)C(=O)c2cccc(S(=O)(=O)N3CCN(Cc4ccccc4)CC3)c2)c1`, which AC50 [1] is on record?
The AC50 was 3.5 µM (active).

And the AC50 [2]?
Its AC50 is 62.2 µM (active).

And the AC50 [3]?
The AC50 was 5.74 µM (active).

For `Cc1ccc(S(=O)(=O)N2CCN(c3ncnc4ccccc34)CC2)cc1`, which AC50 [9] is on record?
The AC50 was 4.61 µM (active).

What about the AC50 [1] of the same compound?
Its AC50 is 1.56 µM (active).

What about the AC50 [2] of the same compound?
Its AC50 is 4.03 µM (active).

What about the AC50 [3] of the same compound?
Its AC50 is 13.7 µM (active).

With `O=C(Nc1ccc(Cl)cn1)c1cccc(F)c1` as the compound, how does the EC50 [4] read?
Its EC50 is 18.4 µM (active).

And the EC50 [5]?
The EC50 was 35.6 µM (active).

What about the EC50 [6] of the same compound?
Its EC50 is > 150 µM (inconclusive).

And the EC50 [7]?
The EC50 was 18.4 µM (active).

Which AC50 [8] does the source give for `O=C(C1CCCCC1)N1CCN=C1SCc1cccnc1` here?
Its AC50 is 0.097 µM (active).

Which results are given for `C=CCNc1nc(N2CCCCC2)c(C#N)c2c1CN(Cc1ccccc1)CC2`?
AC50 [1]: 16.8 µM (active); AC50 [2]: > 70 µM (inactive); AC50 [3]: 28.9 µM (active)

Which AC50 [8] does the source give for `CCCCNC(=O)c1ccc(CS(=O)(=O)c2ccc(C)cc2)o1` here?
Its AC50 is 15.6 µM (active).

For `CSCC[C@H](NC(=O)N1CCn2c1nc1ccccc12)C(=O)NCc1ccco1`, which AC50 [8] is on record?
Its AC50 is 6.97 µM (active).

For `COc1ccc(C)cc1NC(=O)CNC(c1ccccc1)c1ccc(C)cc1` (stereo not drawn), which EC50 [10] is on record?
Its EC50 is 10.3 µM (active).

What about the EC50 [4] of the same compound?
Its EC50 is 2.53 µM (active).

What about the EC50 [11] of the same compound?
Its EC50 is 0.205 µM (active).

What about the EC50 [5] of the same compound?
Its EC50 is 50.2 µM (inconclusive).

And the EC50 [6]?
The EC50 was 2.79 µM (active).

What about the EC50 [7] of the same compound?
Its EC50 is 1.39 µM (active).

Which AC50 [8] does the source give for `COc1ccc(NC2CCCN(C(=O)c3cn(C)c4ccccc34)C2)cc1` (stereo not drawn) here?
The AC50 was 3.1 µM (active).

For `Sc1nc2ccc(Cl)cc2s1`, which AC50 [8] is on record?
The AC50 was 2.39 µM (active).

Which results are given for `COc1cccc(N2CCN(C(=O)c3ccc(C[S+]([O-])c4ccc(Cl)cc4)o3)CC2)c1` (stereo not drawn)?
EC50 [10]: 4.79 µM (inconclusive); EC50 [12]: 6.76 µM (active); EC50 [11]: 0.67 µM (active); AC50 [8]: 3.44 µM (active)

Which AC50 [13] does the source give for `C[C@@H]1CN([C@@H](C)CO)C(=O)c2cccc(NC(=O)CCCCCC(=O)Nc3ccccc3N)c2O[C@@H]1CN(C)S(=O)(=O)c1ccc(Cl)cc1` here?
The AC50 was 3.26 µM (active).

Which AC50 [13] does the source give for `C[C@@H]1CCCCO[C@@H](CN(C)C(=O)Nc2ccc(C(F)(F)F)cc2)[C@@H](C)CN([C@H](C)CO)C(=O)c2cc(NC(=O)Nc3ccc(C(F)(F)F)cc3)ccc2O1` here?
Its AC50 is 3.39 µM (active).

Which AC50 [13] does the source give for `C[C@H]1CN([C@@H](C)CO)C(=O)c2cc(N(C)C)ccc2O[C@@H]1CN(C)C(=O)Nc1ccc(C(F)(F)F)cc1` here?
Its AC50 is 5.64 µM (active).

With `C[C@H]1CN([C@@H](C)CO)C(=O)c2cccc(NC(=O)NC3CCCCC3)c2O[C@H]1CN(C)Cc1ccc(C(=O)Nc2ccccc2N)cc1` as the compound, how does the AC50 [13] read?
The AC50 was 2.74 µM (active).

With `O=C(N/N=C/c1cc(I)cc(I)c1O)c1ccccn1` as the compound, how does the AC50 [13] read?
Its AC50 is 1.12 µM (active).

With `COc1ccc(S(=O)(=O)N(C)C[C@H]2Oc3ccc(NS(=O)(=O)c4ccc(F)cc4)cc3CC(=O)N([C@H](C)CO)C[C@H]2C)cc1` as the compound, how does the AC50 [13] read?
The AC50 was 8.25 µM (active).

With `C[C@@H]1CN([C@H](C)CO)C(=O)Cc2cc(NC(=O)Nc3cccc4ccccc34)ccc2O[C@@H]1CN(C)Cc1ccc(Cl)c(Cl)c1` as the compound, how does the AC50 [13] read?
Its AC50 is 2.53 µM (active).

Which AC50 [13] does the source give for `C[C@@H]1CN([C@H](C)CO)C(=O)Cc2cc(NS(=O)(=O)c3ccc(F)cc3)ccc2O[C@H]1CN(C)Cc1ccc(C(=O)Nc2ccccc2N)cc1` here?
The AC50 was 3.17 µM (active).

For `C[C@@H]1CN([C@H](C)CO)C(=O)c2cc(NC(=O)Cc3cn(C)c4ccccc34)ccc2O[C@@H]1CN(C)C(=O)Nc1ccc(C(F)(F)F)cc1`, which AC50 [13] is on record?
The AC50 was 3.26 µM (active).

Which AC50 [8] does the source give for `Cc1[nH]c2ccccc2c1/C=N/NC(=O)Cc1cccs1` here?
Its AC50 is 4.46 µM (active).

For `O=C(NC1CC1)c1ccc(CSCc2ccccc2Cl)o1`, which AC50 [8] is on record?
The AC50 was 0.549 µM (active).
